Measurements taken from publication PMC8360061, “Search for the Active Ingredients from a 2‐Aminothiazole DMSO Stock Solution with Antimalarial Activity” (Chemmedchem, 2021).
Like-named read-outs stand apart in the source and are kept apart here.

Assays:
[1] = test system: Plasmodium falciparum drug-sensitive NF54; assay: Antimalarial assay, [3H]hypoxanthine incorporation; format: cell-based; conditions: Plasmodium falciparum
Method: (§1) Due to the nature of the study, some decomposition samples w ere only tested once and thus, for some formal standard error, […]
For the final purified compounds, replicates were measured and standard deviation was calculated at least from two replicates.
1.2 General Procedure for Antimalarial Assay
Plasmodium falciparum drug-sensitive NF54 (airport strain from The Netherlands, provided by F. Hoffmann-La Roche Ltd) was cultivated in a variation of the medium consisting of RPMI 1640 supplemented with 0.5% ALBUMAX® II, 25 mM Hepes, 25 mM NaHCO3 (pH 7.3), 0.36 mM hypoxanthine, and 100 μg/mL neomycin, as previously described.[4,5] Human erythrocytes served as host cells.
Cultures were maintained in an atmosphere of 3% O2, 4% CO2, and 93% N2 in humidified modular chambers at 37 °C. Compounds were dissolved in MeOH (10 mM), diluted in hypoxanthine-free culture medium and titrated in duplicates over a 64-fold range in 96 well plates. Infected erythrocytes (1.25% final hematocrit and 0.3% final parasitemia) were added into the wells. After 48 h incubation, 0.25 μCi of [3H]hypoxanthine was added per well and plates were incubated for an additional 24 h. Parasites were harvested onto glass-fiber filters and radioactivity was counted using a Betaplate liquid scintillation counter (Wallac, Zurich). Chloroquine […]
The results were recorded and expressed as a percentage of the untreated controls. Fifty percent inhibitory concentrations (IC50) were estimated by linear interpolation.[6] […]

PfIspE = PfIspE (Plasmodium falciparum, UniProt Q8I470); assay: PfIspE enzymatic assay (coupled to PK/LDH, NADH oxidation at 340 nm); format: biochemical
Chain of PfIspE (Q8I470 entry or part of it): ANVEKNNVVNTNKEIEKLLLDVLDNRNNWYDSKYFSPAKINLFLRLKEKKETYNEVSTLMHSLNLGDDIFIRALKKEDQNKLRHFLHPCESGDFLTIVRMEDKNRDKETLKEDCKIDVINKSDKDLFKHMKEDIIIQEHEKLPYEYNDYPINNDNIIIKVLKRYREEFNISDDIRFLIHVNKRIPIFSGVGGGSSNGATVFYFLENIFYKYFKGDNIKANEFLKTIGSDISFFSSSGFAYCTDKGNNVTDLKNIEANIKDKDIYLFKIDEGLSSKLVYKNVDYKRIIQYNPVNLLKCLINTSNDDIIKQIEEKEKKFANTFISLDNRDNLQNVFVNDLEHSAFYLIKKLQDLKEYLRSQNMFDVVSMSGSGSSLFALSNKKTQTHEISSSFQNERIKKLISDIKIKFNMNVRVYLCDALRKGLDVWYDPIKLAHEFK
Method: (§2) Firstly, we performed a temperature‐dependent decomposition study of compound 1 at 10 mM concentration in DMSO at room temperature (RT), +4 °C and −20 °C (SI, Section 2.3). […] Besides visual inspection of the colour changes of the test sample (see Table 2), the decomposition was monitored by HRMS and NMR spectroscopy. […] Furthermore, all three samples were tested for their inhibitory activity against PfIspE after the incubation period. […] In the IspE assay, the activity of the target enzyme is coupled to the oxidation of NADH (which can be followed spectrophotometrically at 340 nm) via a cascade of the auxiliary enzymes pyruvate kinase and lactate dehydrogenase (PK/LDH).[10] […] Three samples of compound 1 were tested in PK/LDH assay (Table 2).
(§3) Another approach to address this issue is to perform the IspE assay with one or several orthologues of PfIspE. […] The IspE assay setup was identical for both Pf and EcIspE orthologs except for the target enzyme used. One of the setup requirements was that the enzymatic activity of the auxiliary enzymes PK/LDH exceeded the activity of the target enzyme IspE not less than a factor of ten.[10] We investigated, if the inhibition of the auxiliary enzymes may substantially influence the IC50 values obtained from the coupled IspE assay.
(§4) 1.1 General Procedure for Enzymatic Assay
(§5) The cloning, expression and purification of Plasmodium falciparum[1] and Escherichia coli[2,3] and their subsequent assays followed the previously reported procedures .[1] In some specified cases, the tested compound was dissolved in methanol or acetonitrile for the assay .
as §1
(§6) For the final purified compounds, replicates were measured and standard deviation was calculated at least from two replicates. […]
(§7) 2.) Decomposition Study Procedure
(§8) All reagents and solvents were of commercial quality and used without further purification.

[2] = Decomposition study of stock solutions (HRMS, NMR); format: physicochemical; conditions: 10 mM DMSO stock at RT, after one day
Method: Firstly, we performed a temperature‐dependent decomposition study of compound 1 at 10 mM concentration in DMSO at room temperature (RT), +4 °C and −20 °C (SI, Section 2.3). After seven days, 64 % of the sample stored at RT had decomposed (SI, Table S1). Besides visual inspection of the colour changes of the test sample (see Table 2), the decomposition was monitored by HRMS and NMR spectroscopy. […] Furthermore, all three samples were tested for their inhibitory activity against PfIspE after the incubation period. […] This fact correlated with the degree of chemical transformation of compound 1 (Table S1). In the IspE assay, the activity of the target enzyme is coupled to the oxidation of NADH (which can be followed spectrophotometrically at 340 nm) via a cascade of the auxiliary enzymes pyruvate kinase and lactate dehydrogenase (PK/LDH).[10] Therefore, we next confirmed, whether the effects observed in the IspE assay are due to inhibition of the target enzyme or of the auxiliary enzymes. Three samples of compound 1 were tested in PK/LDH assay (Table 2).
Secondly, we analysed if spontaneous chemical transformation of compound 1 may depend on the solvent used for the preparation of its stock solutions. We incubated 10 mM stock preparations of compound 1 in DMSO, acetonitrile (ACN) and methanol (MeOH) at RT. Aliquots were taken during 16 days of incubation and tested against the enzyme PfIspE (Table 3). […] For further decomposition incubation of compound 1, only DMSO was used as solvent.
2.3 Temperature-Dependent Study
Compound 1 was dissolved in DMSO to afford 10 mM stock solution, in the scale of 3.65 mg in 1 mL. Three aliquots were prepared and one each was stored inside a light -protecting box at different temperatures: room temperature (RT), +4 °C and –20 °C. Samples were only taken to RT for the minimum time required for sampling. Samples were further d iluted with acetonitrile to 10 µM (1:1000) for HRMS analysis. For calibration, a fresh stock solution of the compound 1 was prepared shortly before the analysis. The concentration range used for the calibration was from 10 µM to 20 nM, including 10 samples with 1:1 dilutions starting from the highest concentration (Appendix I). In all of the calibration points and samples, diphenhydramine ( m/z: 256.16907 [M+H]+) was included as an internal standard at the concentration of 500 nM. The results were analysed using Thermo Xcalibur Quan Browser. Similarly, three NMR samples of compound 1 were prepared in DMSO-d6 and each stored at different temperatures; RT, +4 °C and –20 °C, (Figure S8).
Table S1. Summary of the decomposition of compound 1 at different temperatures with the corresponding enzymatic activities measured after three months.
The Percentage of Compound 1 Left After Degradation after 3 months of decomposition[b] Temperature Day 7 1 month 2 months PfIspE IC50 EcIspE IC50 PK/LDH IC50 […]
[a] [b] Errors given as formal standard error. n.d.: not determined, PK/LDH: pyruvate kinase and lactate dehydrogenase, Pf: Plasmodium falciparum, Ec: Escherichia coli.
Figure S7. The HRMS recorded for the samples submitted to the enzyme assay after 3 months of decomposition with the corresponding colour differences. […]
2.4 Solvent-Dependent Study
As in the Section 2.3, stock solutions of compound 1 were prepared in DMSO, ACN and MeOH and stored at RT for 16 days in a box protected from light . Samples were collected during this time and the enzymatic activity was analysed for them as in main text, Table […]
compound 1 for ACN or MeOH was detectible (Figures S11–12). Similarly, the old samples of compound 1 used for enzyme and cell assays were analysed with HRMS (Figure S13). Additionally, NMR sample in MeOH was prepared and measured over time while stored at RT. As a follow-up experiment, the stability of compound 1 was determined for its 10 mM stock solution in Tris-HCl (pH 7.6) with and without 5% DMSO and Cyrene™ with HRMS (Figure S16–18). […]

EcIspE = biological target: T1, EcIspE (Escherichia coli, UniProt P62615); assay: EcIspE enzymatic assay (coupled to PK/LDH); format: biochemical; conditions: fractions of second purification
T1 construct: made in house
T1 sequence (P62615 whole entry): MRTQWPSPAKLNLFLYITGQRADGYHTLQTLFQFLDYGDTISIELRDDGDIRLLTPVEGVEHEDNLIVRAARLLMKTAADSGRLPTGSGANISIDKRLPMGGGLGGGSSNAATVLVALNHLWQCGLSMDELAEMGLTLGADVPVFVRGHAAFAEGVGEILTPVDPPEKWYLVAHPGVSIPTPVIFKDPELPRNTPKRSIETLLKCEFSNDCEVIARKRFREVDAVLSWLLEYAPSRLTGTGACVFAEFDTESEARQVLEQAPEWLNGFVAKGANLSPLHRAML
Source text: as §3, §4, §5, §1, §6, §7, §8
Low resolution mass analytics and purity controls were carried out using an Ultimate 3000-ISQ liquid-chromatography mass spectrometry (LCMS) system (Thermo Fisher […]

[3] = biological target: PK/LDH (pyruvate kinase and lactate dehydrogenase); assay: PK/LDH auxiliary enzyme assay; format: biochemical; conditions: SFC-separated compound, dissolved in methanol shortly before the assay
Method: as §2, §4, §5, §1, §6, §7, §8
Low resolution mass analytics and purity controls were carried out using an Ultimate 3000-ISQ liquid-chromatography mass spectrometry (LCMS) system (Thermo Fisher Scientific, Dreieich, Germany) consisting of a Dionex UltiMate pump, an autosampler, DAD detector and an ESI quadrupole mass spectrometer. NMR spectra were recorded on a Bruker AV 500 or Ascend 700 (1H, 500 MHz or 700 MHz; 13C, 126 MHz or 175 MHz; 19F, 470 MHz) spectrometer. All spectra were measured in DMSO -d6, methanol-d4, acetone-d6 or acetonitrile-d3 to which reported

[4] = fractions of second purification (DMSO, RT, five days), dissolved in ACN
[5] = fractions of second purification (DMSO, RT, five days), dissolved in MeOH

CCN(CC)CCCC(C)Nc1ccnc2cc(Cl)ccc12 (centres unmarked) [Chloroquine, reference compound]
IC50 ([1]; NF54, read-out: PfNF54 IC50): 3.1 ± 0.8 ng/mL

CCn1c(C)cc(-c2csc(Nc3ccccc3OC)n2)c1C [Compound 2, 4-(1-Ethyl-2,5-dimethyl-1H-pyrrol-3-yl)-N-(2-methoxyphenyl)thiazol-2-amine]
IC50 (PfIspE; first screening, from a single measurement, not reproducible later): 191 µM | IC50 (PfIspE; [4]): > 1530 µM | IC50 (PfIspE; [5]): > 1530 µM | IC50 (PfIspE; fresh batch, freshly prepared stock solution): > 500 µM | decomposition in DMSO at RT: dimerisation (HRMS, in words) [2]: dimerising mainly into the predicted N−N dimers | IC50 (EcIspE; dissolved in ACN): > 1530 µM | IC50 (EcIspE; dissolved in MeOH): > 1530 µM

C=CCn1c(C)cc(-c2csc(Nc3ccccc3C(C)C)n2)c1C [Compound 3, 4-(1-Allyl-2,5-dimethyl-1H-pyrrol-3-yl)-N-(2-isopropylphenyl)thiazol-2-amine]
IC50 (PfIspE; [4]): > 1420 µM | IC50 (PfIspE; [5]): > 1420 µM | decomposition in DMSO at RT: dimerisation (HRMS, in words) [2]: dimerising mainly into the predicted N−N dimers | IC50 (EcIspE; dissolved in ACN): > 1420 µM | IC50 (EcIspE; dissolved in MeOH): > 1420 µM

Cc1cc(-c2csc(Nc3ccccc3C(F)(F)F)n2)c(C)n1CC1CCCO1 (centres unmarked) [Compound 4, 4-(2,5-Dimethyl-1-((tetrahydrofuran-2-yl)methyl)-1H-pyrrol-3-yl)-N-(2-(trifluoromethyl)phenyl)thiazol-2-amine]
IC50 (PfIspE; fractions of first prep. HPLC purification (DMSO, RT, 2.5 weeks), dissolved in DMSO as 1 mg/mL): > 1190 µM | IC50 (PfIspE; [4]): > 1190 µM | IC50 (PfIspE; [5]): 112 µM | decomposition in DMSO at RT: dimerisation (HRMS, in words) [2]: no dimerisation | IC50 (EcIspE; dissolved in ACN): > 1190 µM | IC50 (EcIspE; dissolved in MeOH): 292 µM

CCn1c(C)cc(-c2csc(N(c3ccccc3C(F)(F)F)N(C3=NC(=C4C=C(C)[N+](CC)=C4C)CS3)c3ccccc3C(F)(F)F)n2)c1C [DP2]
IC50 ([1]; NF54, 72 h, SFC-separated compound, dissolved in methanol shortly before the assay, 72 hours, highest concentration tested 20 μM, read-out: PfNF54 IC50): 2.1 ± 0.2 µM | IC50 (PfIspE; SFC-separated compound, dissolved in methanol shortly before the assay): 59 ± 4 µM | IC50 [3]: 37 ± 4 µM

C[C@H]1[C@H](OC(=O)CCC(=O)O)O[C@@H]2O[C@@]3(C)CC[C@H]4[C@H](C)CC[C@@H]1[C@@]24OO3 [artesunate, reference compound]
IC50 ([1]; NF54, controls of the antimalarial assay, read-out: PfNF54 IC50): 4 ± 1.7 ng/mL
